Test results reported in patent US20170008888A1 (KYORIN PHARMACEUTICAL CO., LTD., priority 2014, published 2017).

Experiments:
Format in all cases: binding
AurA = molecular target: T1, AurA (Homo sapiens, UniProt O14965); experiment: Probe-based (AX9989) kinase profiling in Jurkat lysate: AurA; conditions: screening concentration 1.0 μM; read-out: Kinase inhibition % at indicated screening concentration: AurA
T1 construct: screened for activity against several kinases in Jurkat cells; endogenous in cells; host or cells: Jurkat cell lysate
T1 sequence (O14965 1-403): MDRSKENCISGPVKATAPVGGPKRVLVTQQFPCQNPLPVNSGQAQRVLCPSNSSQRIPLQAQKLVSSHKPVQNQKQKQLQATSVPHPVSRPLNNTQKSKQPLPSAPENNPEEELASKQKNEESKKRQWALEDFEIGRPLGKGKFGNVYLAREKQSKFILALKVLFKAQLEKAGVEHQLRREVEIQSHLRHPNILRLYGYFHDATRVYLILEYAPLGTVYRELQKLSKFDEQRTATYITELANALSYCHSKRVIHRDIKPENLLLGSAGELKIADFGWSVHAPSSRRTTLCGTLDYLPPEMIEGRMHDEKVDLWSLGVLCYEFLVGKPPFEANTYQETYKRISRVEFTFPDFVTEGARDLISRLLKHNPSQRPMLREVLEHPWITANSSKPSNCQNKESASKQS
Procedure: (§1) In this example, potency of the compounds as ERK5 inhibitors was assessed, and the compounds were screened for activity against several kinases in Jurkat cells.
(§2) Jurkat cell pellets were resuspended in four volumes of lysis buffer (50 mM HEPES pH 7.5, 150 mM NaCl, 0.1% Triton-X-100, 1% v/v phosphatase, inhibitor cocktail II [EMD/Calbiochem, #524625]), sonicated using a tip, sonicator, and Dounce homogenized. Lysate was cleared by centrifugation, at 16,000 g for 15 min., was gel filtered (BioRad 10DG) and MnCl2 was then added to a final concentration of 20 mM before treatment with the test compound and probe labeling. […] All compound treatments were performed at room temperature.
(§3) Acyl phosphate ATP probe (AX9989) labeling reactions were performed at room temperature with a final probe concentration of 5 μM after a 15 min pre-incubation of lysate with a test compound. All reactions were performed in duplicate, using 445 μl/sample at 5 mg/ml. Probe-labeled lysates were denatured and reduced (6 M urea, 10 mM DTT, 65° C., 15 min), alkylated (40 mM iodoacetamide, 37° C., 30 min, and gel filtered (Sephadex G25) into 10 mM ammonium bicarbonate, 2 M urea, 5 mM methionine. The desalted protein mixture was digested with trypsin (0.015 mg/ml) for 1 hr at 37° C., and desthiobiotinylated peptides were captured using a […] high-capacity streptavidin resin (Thermo Scientific). Captured peptides were then washed extensively using 150 μl/wash with three different wash buffers: (A) 3 times with 1% triton, 0.5% tergitol, 1 mM EDTA in PBS; (B) 18 times with PBS; and (C) 8 times with HPLC grade water. Peptides were eluted from the streptavidin beads using two 35-μL washes of a 50% CH3CN/water mixture containing 0.1% TFA at room temperature.
(§4) Kinase active site peptides were identified and quantified using LC/MS. Percent inhibition was calculated as the normalized decrease in the ESI-MS fragment intensities of probe-labeled peptides in samples incubated with the test compound compared to those without.

JAK1 = molecular target: T2, JAK1 (Homo sapiens, UniProt P23458); experiment: Probe-based (AX9989) kinase profiling in Jurkat lysate: JAK1; conditions: screening concentration 1.0 μM; read-out: Kinase inhibition % at indicated screening concentration: JAK1
T2 construct: screened for activity against several kinases in Jurkat cells; endogenous in cells; host or cells: Jurkat cell lysate
T2 sequence (P23458 whole entry): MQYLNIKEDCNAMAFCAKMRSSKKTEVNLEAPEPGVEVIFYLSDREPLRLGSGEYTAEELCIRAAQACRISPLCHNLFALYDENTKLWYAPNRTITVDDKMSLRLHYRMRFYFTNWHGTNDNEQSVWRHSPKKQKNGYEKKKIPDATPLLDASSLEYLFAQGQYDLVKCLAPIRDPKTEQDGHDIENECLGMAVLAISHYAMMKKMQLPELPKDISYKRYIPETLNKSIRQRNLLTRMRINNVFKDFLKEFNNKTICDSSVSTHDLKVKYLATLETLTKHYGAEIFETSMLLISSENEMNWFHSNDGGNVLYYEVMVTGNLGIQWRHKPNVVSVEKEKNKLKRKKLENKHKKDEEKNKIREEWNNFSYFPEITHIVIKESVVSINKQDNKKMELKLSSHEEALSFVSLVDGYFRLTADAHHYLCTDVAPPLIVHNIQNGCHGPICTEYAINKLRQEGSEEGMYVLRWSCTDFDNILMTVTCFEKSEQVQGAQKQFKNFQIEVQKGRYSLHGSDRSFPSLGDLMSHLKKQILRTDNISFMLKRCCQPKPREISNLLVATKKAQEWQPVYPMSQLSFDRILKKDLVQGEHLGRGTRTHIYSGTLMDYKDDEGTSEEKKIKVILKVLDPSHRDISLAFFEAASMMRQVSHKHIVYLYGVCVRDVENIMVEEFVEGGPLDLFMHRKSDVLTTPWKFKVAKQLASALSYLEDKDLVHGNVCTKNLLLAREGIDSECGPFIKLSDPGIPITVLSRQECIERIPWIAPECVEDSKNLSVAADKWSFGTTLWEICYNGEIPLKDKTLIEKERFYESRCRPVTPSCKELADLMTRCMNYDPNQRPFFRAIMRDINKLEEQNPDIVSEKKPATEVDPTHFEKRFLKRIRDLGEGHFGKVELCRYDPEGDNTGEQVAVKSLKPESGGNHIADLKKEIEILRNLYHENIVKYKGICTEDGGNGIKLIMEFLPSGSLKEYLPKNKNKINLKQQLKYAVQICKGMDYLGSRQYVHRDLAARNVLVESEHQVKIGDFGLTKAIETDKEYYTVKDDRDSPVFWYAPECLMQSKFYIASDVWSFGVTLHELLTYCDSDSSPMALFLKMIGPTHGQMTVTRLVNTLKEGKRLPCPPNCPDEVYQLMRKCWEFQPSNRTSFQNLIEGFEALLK
Procedure: as §1, §2, §3, §4

TAO2 = molecular target: T3, TAO2 (Homo sapiens, UniProt Q9UL54); experiment: Probe-based (AX9989) kinase profiling in Jurkat lysate: TAO2; conditions: screening concentration 1.0 μM; read-out: Kinase inhibition % at indicated screening concentration: TAO2
T3 construct: screened for activity against several kinases in Jurkat cells; endogenous in cells; host or cells: Jurkat cell lysate
T3 sequence (Q9UL54 1-1235): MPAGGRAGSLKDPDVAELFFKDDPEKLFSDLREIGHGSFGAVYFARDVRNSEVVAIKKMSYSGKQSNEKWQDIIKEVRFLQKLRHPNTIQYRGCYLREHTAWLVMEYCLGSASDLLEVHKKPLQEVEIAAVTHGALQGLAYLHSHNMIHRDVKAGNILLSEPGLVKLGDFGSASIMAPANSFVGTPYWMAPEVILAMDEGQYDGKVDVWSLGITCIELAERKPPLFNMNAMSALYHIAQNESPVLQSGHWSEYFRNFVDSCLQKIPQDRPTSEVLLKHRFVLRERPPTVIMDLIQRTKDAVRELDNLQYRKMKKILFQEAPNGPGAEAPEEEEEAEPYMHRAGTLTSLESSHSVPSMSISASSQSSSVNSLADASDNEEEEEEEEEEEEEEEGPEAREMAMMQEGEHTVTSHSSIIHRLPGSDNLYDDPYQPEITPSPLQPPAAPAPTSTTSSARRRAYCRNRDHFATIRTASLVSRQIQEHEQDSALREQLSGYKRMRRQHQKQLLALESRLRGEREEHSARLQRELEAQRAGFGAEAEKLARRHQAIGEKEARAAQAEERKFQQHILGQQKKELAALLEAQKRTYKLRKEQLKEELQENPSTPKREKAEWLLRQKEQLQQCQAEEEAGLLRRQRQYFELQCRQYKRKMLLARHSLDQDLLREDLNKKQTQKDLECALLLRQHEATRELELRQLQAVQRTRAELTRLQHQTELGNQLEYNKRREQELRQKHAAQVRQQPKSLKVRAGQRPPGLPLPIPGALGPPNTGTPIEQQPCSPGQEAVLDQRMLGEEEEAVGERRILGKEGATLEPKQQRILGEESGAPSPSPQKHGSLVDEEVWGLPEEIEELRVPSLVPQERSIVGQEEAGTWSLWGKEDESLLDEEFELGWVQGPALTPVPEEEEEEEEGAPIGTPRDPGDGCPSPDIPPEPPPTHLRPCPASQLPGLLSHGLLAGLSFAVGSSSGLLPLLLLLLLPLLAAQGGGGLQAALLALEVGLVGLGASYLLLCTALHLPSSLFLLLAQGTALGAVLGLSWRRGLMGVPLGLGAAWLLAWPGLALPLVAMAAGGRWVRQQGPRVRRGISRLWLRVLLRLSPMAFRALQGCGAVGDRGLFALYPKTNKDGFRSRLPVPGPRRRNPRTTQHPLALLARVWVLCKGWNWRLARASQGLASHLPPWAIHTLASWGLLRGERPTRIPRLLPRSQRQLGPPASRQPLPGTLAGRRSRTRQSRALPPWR
Procedure: as §1, §2, §3, §4

AurB or AurC = experiment: Probe-based (AX9989) kinase profiling in Jurkat lysate: AurB or AurC; conditions: screening concentration 1.0 μM
Procedure: as §1, §2, §3, §4

ABL or ARG = experiment: Probe-based (AX9989) kinase profiling in Jurkat lysate: ABL or ARG; conditions: screening concentration 1.0 μM
Procedure: as §1, §2, §3, §4

AMPKa1 or AMPKa2 = experiment: Probe-based (AX9989) kinase profiling in Jurkat lysate: AMPKa1 or AMPKa2; conditions: screening concentration 1.0 μM
Procedure: as §1, §2, §3, §4

ACK = molecular target: T4, ACK (Homo sapiens, UniProt Q07912); experiment: Probe-based (AX9989) kinase profiling in Jurkat lysate: ACK; conditions: screening concentration 1.0 μM; read-out: Kinase inhibition % at indicated screening concentration: ACK
T4 construct: screened for activity against several kinases in Jurkat cells; endogenous in cells; host or cells: Jurkat cell lysate
T4 sequence (Q07912 whole entry): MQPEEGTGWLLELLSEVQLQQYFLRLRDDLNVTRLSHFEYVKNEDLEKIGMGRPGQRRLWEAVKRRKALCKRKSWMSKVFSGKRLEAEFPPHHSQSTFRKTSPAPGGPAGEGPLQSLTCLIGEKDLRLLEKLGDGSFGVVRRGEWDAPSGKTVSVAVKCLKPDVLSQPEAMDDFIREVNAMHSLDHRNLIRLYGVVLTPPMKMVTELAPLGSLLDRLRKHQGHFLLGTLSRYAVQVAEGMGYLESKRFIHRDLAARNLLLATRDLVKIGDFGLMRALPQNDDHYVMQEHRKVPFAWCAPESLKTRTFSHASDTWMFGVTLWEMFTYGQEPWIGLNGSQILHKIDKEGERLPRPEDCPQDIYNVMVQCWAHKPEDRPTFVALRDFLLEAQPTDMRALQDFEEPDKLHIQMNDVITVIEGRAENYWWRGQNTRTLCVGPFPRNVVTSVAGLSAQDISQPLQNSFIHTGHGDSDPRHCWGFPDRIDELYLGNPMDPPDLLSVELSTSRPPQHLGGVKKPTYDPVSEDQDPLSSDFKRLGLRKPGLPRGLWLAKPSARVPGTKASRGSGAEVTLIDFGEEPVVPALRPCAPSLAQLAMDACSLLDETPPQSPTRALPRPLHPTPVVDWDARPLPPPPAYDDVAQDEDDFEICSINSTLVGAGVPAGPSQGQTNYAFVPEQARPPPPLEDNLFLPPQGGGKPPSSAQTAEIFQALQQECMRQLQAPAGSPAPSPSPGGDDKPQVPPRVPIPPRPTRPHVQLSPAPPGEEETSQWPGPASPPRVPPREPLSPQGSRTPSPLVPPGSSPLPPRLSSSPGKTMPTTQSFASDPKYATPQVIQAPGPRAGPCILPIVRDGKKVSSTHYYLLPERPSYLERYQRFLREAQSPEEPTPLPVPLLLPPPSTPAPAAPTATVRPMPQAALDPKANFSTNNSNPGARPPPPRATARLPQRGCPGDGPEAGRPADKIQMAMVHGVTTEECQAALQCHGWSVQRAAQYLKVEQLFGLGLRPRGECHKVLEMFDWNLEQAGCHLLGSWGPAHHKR
Procedure: as §1, §2, §3, §4

ERK5 = molecular target: T5, ERK5 (Homo sapiens, UniProt Q13164); experiment: Probe-based (AX9989 acyl phosphate ATP probe) kinase profiling in Jurkat lysate: ERK5; conditions: for inhibition at 1 µM: screening concentration 1.0 μM, read-out: Kinase inhibition % at indicated screening concentration: ERK5; for IC50: calculated from percent inhibition of AX9989 labeling and the screening concentration, Jurkat lysate
T5 construct: screened for activity against several kinases in Jurkat cells; endogenous in cells; host or cells: Jurkat cell lysate
T5 sequence (Q13164 whole entry): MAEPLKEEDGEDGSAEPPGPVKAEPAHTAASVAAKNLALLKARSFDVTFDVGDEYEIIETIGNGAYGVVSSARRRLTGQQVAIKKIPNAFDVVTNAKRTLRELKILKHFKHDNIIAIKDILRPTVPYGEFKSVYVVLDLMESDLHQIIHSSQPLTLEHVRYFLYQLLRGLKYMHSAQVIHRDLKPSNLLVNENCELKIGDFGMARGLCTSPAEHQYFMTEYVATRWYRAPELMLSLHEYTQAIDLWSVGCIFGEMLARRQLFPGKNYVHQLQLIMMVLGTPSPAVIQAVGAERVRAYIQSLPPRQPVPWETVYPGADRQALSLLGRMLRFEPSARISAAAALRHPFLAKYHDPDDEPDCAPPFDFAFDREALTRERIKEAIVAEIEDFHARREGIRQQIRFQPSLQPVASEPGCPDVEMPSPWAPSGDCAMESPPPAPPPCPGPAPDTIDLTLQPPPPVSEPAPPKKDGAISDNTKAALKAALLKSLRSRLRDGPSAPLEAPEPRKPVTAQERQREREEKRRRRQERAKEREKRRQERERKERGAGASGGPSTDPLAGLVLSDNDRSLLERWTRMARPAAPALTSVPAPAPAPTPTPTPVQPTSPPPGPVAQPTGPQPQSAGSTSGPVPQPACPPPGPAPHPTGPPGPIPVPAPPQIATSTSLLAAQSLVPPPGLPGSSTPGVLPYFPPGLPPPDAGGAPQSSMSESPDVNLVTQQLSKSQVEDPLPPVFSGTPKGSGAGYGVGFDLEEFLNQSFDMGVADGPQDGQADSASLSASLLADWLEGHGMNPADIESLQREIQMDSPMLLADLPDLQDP
Procedure: as §1, §2, §3, §4
ERK5 IC50 values were calculated from the percent inhibition and the screening concentration.

| Structure (SMILES) | inhibition at 1 µM (AurA) [%] | inhibition at 1 µM (JAK1) [%] | inhibition at 1 µM (TAO2) [%] | Kinase inhibition % at indicated screening concentration: AurB or AurC (AurB or AurC) | Kinase inhibition % at indicated screening concentration: ABL or ARG (ABL or ARG) | Kinase inhibition % at indicated screening concentration: AMPKa1 or AMPKa2 (AMPKa1 or AMPKa2) | inhibition at 1 µM (ACK) [%] | inhibition at 1 µM (ERK5) [%] | IC50 (ERK5) [nM] |
| --- | --- | --- | --- | --- | --- | --- | --- | --- | --- |
| CCOc1cc(C(=O)N2CCC(N3CCCC3)CC2)ccc1Nc1cc2c(cn1)N(C)C(=O)c1scnc1N2C [Compound 34] | ≤ 35 | ≤ 35 | ≤ 35 | E (E is ≦35%) | E (E is ≦35%) | E (E is ≦35%) | ≤ 35 | > 90 |  |
| COc1ccc(C(=O)O)cc1Nc1cc2c(cn1)N(C)C(=O)c1ccccc1N2C [Compound 36] | ≤ 35 | ≤ 35 | ≤ 35 | E (E is ≦35%) | E (E is ≦35%) | E (E is ≦35%) | ≤ 35 | 35 to 50 | > 500 |
| Cc1cc(O)ccc1Nc1cc2c(cn1)N(C)C(=O)c1ccccc1N2C [Compound 38] | ≤ 35 | ≤ 35 | ≤ 35 | E (E is ≦35%) | E (E is ≦35%) | E (E is ≦35%) | ≤ 35 | 50 to 75 | 101 to 500 |
| Cc1ccccc1Nc1cc2c(cn1)N(C)C(=O)c1ccccc1N2C [Compound 58] | ≤ 35 | ≤ 35 | ≤ 35 | E (E is ≦35%) | E (E is ≦35%) | E (E is ≦35%) | ≤ 35 | 50 to 75 | > 500 |
| CN1C(=O)c2ccccc2N(C)c2cc(N[C@H]3CC[C@H](NC(=O)N4CCCC4)CC3)ncc21 [Compound 60] | ≤ 35 | ≤ 35 | ≤ 35 | E (E is ≦35%) | E (E is ≦35%) | E (E is ≦35%) | ≤ 35 | 75 to 90 | 101 to 500 |
